These results are taken from patent US11896593B2, “Sulfamate derivative compounds for use in treating or alleviating a psychiatric disorder” (Bio-Pharm Solutions Co., Ltd., priority 2020, dated 2024).

One assay concerns ICR male mice. Briefly: Forced swim test (mouse, mFST). To be noted: po; mouse forced swim test, 30 mg/kg, 1 hr; read-out: mFST protection % at administration dose. The assay is classed as in vivo. On the procedure: In order to determine the anti-depressant effect in rodents, the forced swim test was performed with rats and mice. The forced swim test causes an immobile state by forcing an animal to swim in a confined space. It reflects a state of despair giving up evading such a circumstance. ICR male mice (25 g to 30 g) and Wistar male rats (240 g to 260 g) were purchased from Samtako Bio Korea Co. (Korea) and allowed to acclimatize for 1 week before being tested in a controlled animal facility (temperature 22±2° C., humidity 55±5%). The test compound was dissolved in 20% Tween80 and administered orally 60 minutes before testing. The control group was provided with a corresponding vehicle. […] 15 minutes of forced swimming was performed a day before the experiment. On the day of the experiment, the animal was placed in the cylinder 60 minutes after the administration of the compound and was videotaped for 6 minutes. In the recorded videos, time during which the animal placed its head on the water and remained still without movement was measured based on the remaining 4 minutes excluding the first 2 minutes. It was evaluated that the lower the value of the immobile posture time, the greater the anti-depressant action (Reference; Porsolt R D, Le Pichon M. Jalfre M. 1997. Depression: a new animal model sensitive to antidepressant treatments. Nature. April 21; 266(5604):730-2.).
The result was shown as the standard error of measurement (SEM) of mean value t mean value. Behavioral data were analyzed by one-way ANOVA. For statistical significance, a value of <0.05 was taken (***p<0.001, **p=0.001˜0.01, *p=0.01˜0.05). Data management and statistics were performed using the Prism software of Windows version 4 (GraphPad Softward Co., San Diego, CA, USA).
Based on the results of Table 7, the ED50 value of the compound of Example 2 was calculated and shown in Table 7, and after 30 mg/kg and 60 mg/kg of the compounds of the other remaining examples were administered based on TD50 values to perform the forced swim tests, respectively, the administration doses with protected efficacy and protection % at the corresponding administration doses were shown in Table 7.
With `CC1(C)O[C@@H](COS(N)(=O)=O)[C@H](Cc2ccccc2)O1` [Example 122, ((4S,5S)-5-benzyl-2,2-dimethyl-1,3-dioxolan-4-yl)methyl sulfamate], the inhibition in vivo at 30 mg/kg worked out at 46.9%.
The same measure, in the same setting: under `CC1(C)O[C@@H](COS(N)(=O)=O)[C@H](c2ccc(Cl)cc2Cl)O1` [Example 40, ((4S,5S)-5-(2,4-dichlorophenyl)-2,2-dimethyl-1,3-dioxolan-4-yl)methyl sulfamate] stands 64.2%; under `NS(=O)(=O)OC[C@H]1OC2(CCCC2)O[C@@H]1c1c(Cl)cccc1Cl` [Example 57, ((2R,3R)-3-(2,6-dichlorophenyl)-1,4-dioxaspiro[4,4]nonan-2-yl)methyl sulfamate], 61.6%; under `NS(=O)(=O)OCC[C@@H]1OC2(CCCC2)O[C@H]1c1ccccc1` [Example 134, 2-((2S,3S)-3-phenyl-1,4-dioxaspiro[4,4]nonan-2-yl)ethyl sulfamate], 63%.
On the same count and under the same terms, under `Cc1ccccc1[C@@H]1OC(C)(C)O[C@H]1COS(N)(=O)=O` [Example 92, ((4S,5S)-5-(2-methylphenyl)-2,2-dimethyl-1,3-dioxolan-4-yl)methyl sulfamate] stands 47%; under `NS(=O)(=O)OCC[C@@H]1OC2(CCCC2)O[C@H]1c1ccccc1Cl` [Example 158, 2-((2S,3S)-3-(2-chlorophenyl)-1,4-dioxaspiro[4,4]nonan-2-yl)ethyl sulfamate], 51.6%.
As for `CC1(C)O[C@@H](CCOS(N)(=O)=O)[C@H](c2ccccc2)O1` [Example 130, 2-((4S,5S)-5-phenyl-2,2-dimethyl-1,3-dioxolan-4-yl)ethyl sulfamate], the inhibition in vivo at 30 mg/kg is 57.5%.

The assay is the same for the next values; noted with them: po; mouse forced swim test, 60 mg/kg, 1 hr; read-out: mFST protection % at administration dose.
As to `CC1(C)O[C@@H](CCOS(N)(=O)=O)[C@H](Cc2ccccc2Cl)O1` [Example 138, 2-((4S,5S)-5-(2-chlorobenzyll)-2,2-dimethyl-1,3-dioxolan-4-yl)ethyl sulfamate], the inhibition in vivo at 60 mg/kg stood at 60.2%.
On the same count and under the same terms, for `CC1(C)O[C@@H](CCOS(N)(=O)=O)[C@H](Cc2ccccc2)O1` [Example 114, 2-((4S,5S)-5-benzyl-2,2-dimethyl-1,3-dioxolan-4-yl)ethyl sulfamate] the value was 36.4%; for `NS(=O)(=O)OCC[C@@H]1OC2(CCCC2)O[C@H]1Cc1ccccc1` [Example 118, 2-((2S,3S)-3-benzyl-1,4-dioxaspiro[4,4]nonan-2-yl)ethyl sulfamate], 35.3%.
Still for that read-out and setting: under `CC1(C)O[C@@H](CCOS(N)(=O)=O)[C@H](c2ccccc2Cl)O1` [Example 154, 2-((4S,5S)-5-(2-chlorophenyl)-2,2-dimethyl-1,3-dioxolan-4-yl)ethyl sulfamate] stands 38.9%.
Still for that read-out and setting: for `NS(=O)(=O)OC[C@@H]1OC2(CCCC2)O[C@H]1c1ccccc1` [Example 110, ((2S,3S)-3-phenyl-1,4-dioxaspiro[4,4]nonan-2-yl)methyl sulfamate] the value was 39.3%; for `NS(=O)(=O)OC[C@@H]1OC2(CCCC2)O[C@H]1Cc1ccccc1` [Example 126, ((2S,3S)-3-benzyl-1,4-dioxaspiro[4,4]nonan-2-yl)methyl sulfamate], 43%; for `CC1(C)O[C@@H](COS(N)(=O)=O)[C@H](c2ccccc2)O1` [Example 106, ((4S,5S)-5-phenyl-2,2-dimethyl-1,3-dioxolan-4-yl)methyl sulfamate], 24.5%.
Take `Nc1ccccc1[C@@H]1OC2(CCCC2)O[C@H]1COS(N)(=O)=O` [Example 72, ((2S,3S)-3-(2-aminophenyl)-1,4-dioxaspiro[4,4]nonan-2-yl)methyl sulfamate]: the inhibition in vivo at 60 mg/kg is 54.3%.
On the same count and under the same terms, under `CC1(C)O[C@@H](COS(N)(=O)=O)[C@H](c2cnc(Cl)s2)O1` [Example 166, ((4R,5S)-5-(2-chlorothiazol-5-yl)-2,2-dimethyl-1,3-dioxolan-4-yl)methyl-sulfamate] stands 53.3%; under `CC1(C)O[C@@H](COS(N)(=O)=O)[C@H](Cc2ccccc2Cl)O1` [Example 146, ((4S,5S)-5-(2-chlorobenzyl)-2,2-dimethyl-1,3-dioxolan-4-yl)methyl sulfamate], 65.1%.
`NS(=O)(=O)OCC[C@@H]1OC2(CCCC2)O[C@H]1Cc1ccccc1Cl` [Example 142, 2-((2S,3S)-3-(2-chlorobenzyl)-1,4-dioxaspiro[4,4]nonan-2-yl)ethyl sulfamate]: the inhibition in vivo at 60 mg/kg worked out at 45.9%.
On the same count and under the same terms, for `NS(=O)(=O)OC[C@@H]1OC2(CCCC2)O[C@H]1c1ccccc1Cl` [Example 10, ((2S,3S)-3-(2-chlorophenyl)-1,4-dioxaspiro[4,4]nonan-2-yl)methyl sulfamate] the value was 19%.
Same read-out and setting: for `CC1(C)O[C@@H](COS(N)(=O)=O)[C@H](c2sc(Cl)nc2Cl)O1` [Example 164, ((4S,5R)-5-(2,4-dichlorothiazol-5-yl)-2,2-dimethyl-1,3-dioxolan-4-yl)methyl sulfamate] the value was 44.9%; for `NS(=O)(=O)OC[C@@H]1OC(=O)O[C@H]1c1ccccc1[N+](=O)[O-]` [Example 90, ((4S,5S)-5-(2-nitrophenyl)-2-oxo-1,3-dioxolan-4-yl)methyl sulfamate], 60.4%; for `NS(=O)(=O)OC[C@@H]1OC2(CCCC2)O[C@H]1Cc1ccccc1Cl` [Example 150, ((2S,3S)-3-(2-chlorobenzyl)-1,4-dioxaspiro[4,4]nonan-2-yl)methyl sulfamate], 56.9%.
